We go through 18 compounds from patent publication US9834542B2, “LXR modulators” (BRISTOL-MYERS SQUIBB COMPANY, priority 2013, dated 2017).

This test has as its target T1, LXRβ (Homo sapiens, UniProt P55055).
T1 construct: Co-transfection expression plasmids, comprising full-length LXRα (pCMX-h LXRα[…] or LXRβ (pCMX-hLXRβ)); expressed in transfected cells; host or cells: CV-1 African Green Monkey Kidney Cells
T1 sequence (P55055 1-460): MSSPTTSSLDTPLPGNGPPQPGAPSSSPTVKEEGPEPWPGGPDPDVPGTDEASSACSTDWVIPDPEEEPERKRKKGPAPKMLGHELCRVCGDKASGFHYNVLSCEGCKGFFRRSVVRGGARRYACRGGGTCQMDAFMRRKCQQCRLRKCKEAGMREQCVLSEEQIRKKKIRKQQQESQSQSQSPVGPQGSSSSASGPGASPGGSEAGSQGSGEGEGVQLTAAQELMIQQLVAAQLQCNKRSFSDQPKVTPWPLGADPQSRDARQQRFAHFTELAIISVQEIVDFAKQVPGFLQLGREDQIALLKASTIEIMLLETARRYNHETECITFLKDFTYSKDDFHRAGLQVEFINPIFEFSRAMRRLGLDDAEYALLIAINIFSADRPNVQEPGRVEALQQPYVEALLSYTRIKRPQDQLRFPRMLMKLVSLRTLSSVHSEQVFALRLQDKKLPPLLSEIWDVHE
T1 sequence (P19793 1-462 partner): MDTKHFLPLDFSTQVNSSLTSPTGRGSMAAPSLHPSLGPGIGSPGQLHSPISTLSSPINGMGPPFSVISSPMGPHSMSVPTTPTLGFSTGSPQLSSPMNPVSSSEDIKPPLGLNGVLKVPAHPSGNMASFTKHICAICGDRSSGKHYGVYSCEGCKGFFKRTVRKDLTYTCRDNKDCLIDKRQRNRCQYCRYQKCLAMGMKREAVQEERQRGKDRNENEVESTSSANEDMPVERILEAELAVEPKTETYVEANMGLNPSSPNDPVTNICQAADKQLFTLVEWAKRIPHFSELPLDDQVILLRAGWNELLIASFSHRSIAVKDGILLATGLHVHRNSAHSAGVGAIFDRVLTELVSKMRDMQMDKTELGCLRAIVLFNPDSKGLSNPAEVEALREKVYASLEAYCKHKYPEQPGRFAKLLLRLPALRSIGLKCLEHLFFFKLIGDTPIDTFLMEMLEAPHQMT
Nature of the test: Co-transfection assay (LXRE luciferase reporter), LXRβ. The format is cell-based. As to conditions: for EC50: CV-1 cells transfected with pCMX-hLXRβ and LXREx1-Tk-Luciferase, 20 hours incubation; for Emax: LXRβ co-transfection, relative to high control 1-(2,4-difluorobenzyl)-2-oxo-6-(4-phenoxyphenyl)-4-(trifluoromethyl)-1,2-dihydropyridine-3-carbonitrile, read-out: % Efficacy. In short, it runs like this:
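CV-1 / pCMX-hLXRβ + LXREx1-Tk-Luc + β-gal; cpd 20 h, 37 °C, ≤0.5% DMSO; Steady-Glo luminescence. 11-pt ½-log curves, duplicate wells, sigmoidal fit → EC50; % efficacy vs high-control agonist, DMSO low control; mean of ≥2 expts.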

Turning to `CCC(F)(F)c1cn(-c2ccc(-c3cc(F)c(CO)c(S(C)(=O)=O)c3)cc2-c2nc(C)oc2-c2ccc(OC(F)(F)F)cc2)c(C)n1` [Example 518, (4′-(4-(1,1-difluoropropyl)-2-methyl-1H-imidazol-1-yl)-3-fluoro-3′-(2-methyl-5-(4-(trifluoromethoxy)phenyl)oxazol-4-yl)-5-(methylsulfonyl)-[1,1′-biphenyl]-4-yl)methanol], it took 107 nM to reach a half-maximal effect (EC50) and the Emax came to 49%.
Consider `CCc1nc(-c2cc(-c3ccc(CO)c(S(C)(=O)=O)c3)ccc2-n2cc(C(F)(F)F)nc2C)c(-c2ccc(OC(F)(F)F)cc2)o1` [Example 519, (3′-(2-ethyl-5-(4-(trifluoromethoxy)phenyl)oxazol-4-yl)-4′-(2-methyl-4-(trifluoromethyl)-1H-imidazol-1-yl)-3-(methylsulfonyl)-[1,1′-biphenyl]-4-yl)methanol], for which the EC50 was 140 nM and the Emax was 100%.
The like results for `CCCc1nc(-c2cc(-c3cccc(S(C)(=O)=O)c3)ccc2-n2cc(C(F)(F)F)nc2C)c(-c2ccc(OC(F)(F)F)cc2)o1` [Example 520, 4-(4-(2-methyl-4-(trifluoromethyl)-1H-imidazol-1-yl)-3′-(methylsulfonyl)-[1,1′-biphenyl]-3-yl)-2-propyl-5-(4-(trifluoromethoxy)phenyl)oxazole] were, in that order, 22 nM and 86%.
Regarding `Cc1nc(C(F)(F)F)cn1-c1ccc(-c2ccc(CO)c(S(C)(=O)=O)c2)cc1-c1nc(C(C)C)oc1-c1ccc(OC(F)(F)F)cc1` [Example 521, (3′-(2-isopropyl-5-(4-(trifluoromethoxy)phenyl)oxazol-4-yl)-4′-(2-methyl-4-(trifluoromethyl)-1H-imidazol-1-yl)-3-(methylsulfonyl)-[1,1′-biphenyl]-4-yl)methanol], a half-maximal effect (EC50) was put at 21 nM and the Emax amounted to 71%.
The like results for `Cc1nc(-c2cc(-c3ccc(CO)c(S(C)(=O)=O)c3)ccc2-n2cc(C(F)(F)F)nc2C)c(-c2ccc(OC(F)(F)F)cc2)o1` [Example 522, (4′-(2-methyl-4-(trifluoromethyl)-1H-imidazol-1-yl)-3′-(2-methyl-5-(4-(trifluoromethoxy)phenyl)oxazol-4-yl)-3-(methylsulfonyl)-[1,1′-biphenyl]4-yl)methanol] were, in that order, 42 nM and 86%.
With `Cc1nc(-c2cc(-c3ccc(CCO)c(S(C)(=O)=O)c3)ccc2-n2cc(C(F)(F)F)nc2C)c(-c2ccc(OC(F)(F)F)cc2)o1` [Example 523, 2-(4′-(2-methyl-4-(trifluoromethyl)-1H-imidazol-1-yl)-3′-(2-methyl-5-(4-(trifluoromethoxy)phenyl)oxazol-4-yl)-3-(methylsulfonyl)-[1,1′-biphenyl]-4-yl)ethanol], it took 67 nM to reach a half-maximal effect (EC50) and the Emax stood at 102%.
As to `Cc1nc(C(F)(F)F)cn1-c1ccc(-c2cccc(S(C)(=O)=O)c2)cc1-c1nc(CCO)oc1-c1ccc(OC(F)(F)F)cc1` [Example 524, 2-(4-(4-(2-methyl-4-(trifluoromethyl)-1H-imidazol-1-yl)-3′-(methylsulfonyl)-[1,1′-biphenyl]-3-yl)-5-(4-(trifluoromethoxy)phenyl)oxazol-2-yl)ethanol], it took 514 nM to reach a half-maximal effect (EC50) and the Emax turned out to be 66%.
As to `Cc1nc(C(F)(F)F)cn1-c1ccc(-c2cc(F)c(CO)c(S(C)(=O)=O)c2)cc1-c1nc(CCO)oc1-c1ccc(OC(F)(F)F)cc1` [Example 525, 2-(4-(3′-fluoro-4′-(hydroxymethyl)-4-(2-methyl-4-(trifluoromethyl)-1H-imidazol-1-yl)-5′-(methylsulfonyl)-[1,1′-biphenyl]-3-yl)-5-(4-(trifluoromethoxy)phenyl)oxazol-2-yl)ethanol], the EC50 amounted to 650 nM and the Emax turned out to be 67%.
The like results for `Cc1nc(C(F)(F)F)cn1-c1ccc(-c2ccc(CO)c(S(C)(=O)=O)c2)cc1-c1nc(CCO)oc1-c1ccc(OC(F)(F)F)cc1` [Example 526] were, in that order, 1770 nM and 74%.
For `COCCc1nc(-c2cc(-c3cc(F)c(CO)c(S(C)(=O)=O)c3)ccc2-n2cc(C(F)(F)F)nc2C)c(-c2ccc(OC(F)(F)F)cc2)o1` [Example 527, (3-fluoro-3′-(2-(2-methoxyethyl)-5-(4-(trifluoromethoxy)phenyl)oxazol-4-yl)-4′-(2-methyl-4-(trifluoromethyl)-1H-imidazol-1-yl)-5-(meththsulfonyl)-[1,1′-biphenyl]-4-yl)methanol], the EC50 was 107 nM and the Emax was 54%.
As for `Cc1nc(C(F)(F)F)cn1-c1ccc(-c2cc(F)c(CO)c(S(C)(=O)=O)c2)cc1-c1nc(C(C)(C)CO)oc1-c1ccc(OC(F)(F)F)cc1` [Example 528, 2-(4-(3′-fluoro-4′-(hydroxymethyl)-4-(2-methyl-4-(trifluoromethyl)-1H-imidazol-1-yl)-5′-(meththsulfonyl)-[1,1′-biphenyl]-3-yl)-5-(4-(trifluoromethoxy)phenyl)oxazol-2-yl)-2-methylpropan-1-ol], the EC50 came to 133 nM and the Emax worked out at 20%.
The like results for `Cc1nc(-c2cc(-c3cc(F)c(CCO)c(S(C)(=O)=O)c3)ccc2-n2cc(C(F)(F)F)nc2C)c(-c2ccc(OC(F)(F)F)cc2)o1` [Example 529, 2-(3-fluoro-4′-(2-methyl-4-(trifluoromethyl)-1H-imidazol-1-yl)-3′-(2-methyl-5-(4-(trifluoromethoxy)phenyl)oxazol-4-yl)-5-(methylsulfonyl)-[1,1′-biphenyl]-4-yl)ethanol] were, in that order, 54 nM and 101%.
Take `Cc1nc(C(F)(F)F)cn1-c1ccc(-c2cc(F)c(CO)c(S(C)(=O)=O)c2)cc1-c1nc(CCO)oc1-c1ccc2c(c1)OC(F)(F)O2` [Example 530, 2-(5-(2,2-difluorobenzo[d][1,3]dioxol-5-yl)-4-(3′-fluoro-4′-(hydroxymethyl)-4-(2-methyl-4-(trifluoromethyl)-1H-imidazol-1-yl)-5′-(methylsulfonyl)-[1,1′-biphenyl]-3-yl)oxazol-2-yl)ethanol]: the EC50 was 739 nM and the Emax is 71%.
The like results for `Cc1nc(C(F)(F)F)cn1-c1ccc(-c2cccc(S(C)(=O)=O)c2)cc1-c1nc(CCO)oc1-c1ccc2c(c1)OC(F)(F)O2` [Example 531] were, in that order, 422 nM and 74%.
The like results for `C=Cc1nc(-c2cc(-c3cccc(S(C)(=O)=O)c3)ccc2-n2cc(C(F)(F)F)nc2C)c(-c2ccc3c(c2)OC(F)(F)O3)o1` [Example 532] were, in that order, 16 nM and 89%.
The like results for `Cc1nc(-c2cc(-c3cccc([S+](C)[O-])c3)ccc2-n2cc(C(F)(F)F)nc2C)c(-c2ccc(OC(F)(F)F)cc2)o1` (stereo not drawn) [Example 533, 2-methyl-4-(4-(2-methyl-4-(trifluoromethyl)-1H-imidazol-1-yl)-3′-(methylsulfinyl)-[1,1′-biphenyl]-3-yl)-5-(4-(trifluoromethoxy)phenyl)oxazole] were, in that order, 233 nM and 73%.
As to `Cc1nc(C(F)(F)F)cn1-c1ccc(-c2cc(F)c(CO)c(S(C)(=O)=O)c2)cc1-c1nc(CC(C)O)oc1-c1ccc(OC(F)(F)F)cc1` (stereo not drawn) [Example 534, 1-(4-(3′-fluoro-4′-(hydroxymethyl)-4-(2-methyl-4-(trifluoromethyl)-1H-imidazol-1-yl)-5′-(methylsulfonyl)-[1,1′-biphenyl]-3-yl)-5-(4-(trifluoromethoxy)phenyl)oxazol-2-yl)propan-2-ol], the EC50 stood at 197 nM and the Emax came to 55%.
The like results for `Cc1nc(C(F)(F)F)cn1-c1ccc(-c2ccc(CO)c(S(C)(=O)=O)c2)cc1-c1nc(CC(C)O)oc1-c1ccc(OC(F)(F)F)cc1` (stereo not drawn) [Example 535, 1-(4-(4′-(hydroxymethyl)-4-(2-methyl-4-(trifluoromethyl)-1H-imidazol-1-yl)-3'-(methylsulfonyl)-[1,1′-biphenyl]-3-yl)-5-(4-(trifluoromethoxy)phenyl)oxazol-2-yl)propan-2-ol] were, in that order, 617 nM and 62%.

What is called EC50 is the concentration at which the effect is half-maximal. Read a high EC50 as lower potency in that assay.
